The text below walks through data of patent publication US20050266509A1, “Interaction of NMDA receptor with protein tyrosine phosphatase” (AGY Therapeutics, Inc., priority 2003, published 2005).

pIC50: −log10 of the molar value.

In one test the target is T1, PTPMEG (Homo sapiens, UniProt P29074).
T1 construct: Asp-Ser-6xHis (N); made in house; host or cells: E. coli BL21(DE3)
T1 sequence (P29074 655-911 limits assumed): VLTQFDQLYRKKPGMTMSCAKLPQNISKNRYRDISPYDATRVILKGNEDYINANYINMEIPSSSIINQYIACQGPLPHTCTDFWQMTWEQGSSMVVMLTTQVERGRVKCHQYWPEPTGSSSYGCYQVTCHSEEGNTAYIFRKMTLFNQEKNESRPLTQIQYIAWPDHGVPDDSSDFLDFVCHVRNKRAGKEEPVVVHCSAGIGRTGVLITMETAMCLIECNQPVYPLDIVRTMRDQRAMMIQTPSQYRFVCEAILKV
Nature of the test: TR-FRET phosphatase activity assay, PTPMEG. In kind it is biochemical. The procedure:
Expression and Purification of PTPMEG The DNA sequence encoding the C-terminal 326 residues of PTPMEG (phosphatase domain) was subcloned into the pET-17b vector (Novagen) between the Ndel and Xhol restriction sites. An N-terminal tag consisting of Asp-Ser-6×His was incorporated at the beginning of the protein sequence. Protein expression was performed in BL21(DE3) cells at 37° C. with a 4 hour 0.5 mM IPTG induction. The cells were harvested by centrifugation and stored at −80° C. until needed for protein purification. Protein purification consisted of cell lysis by sonication, immobilized metal affinity chromatography (IMAC) on a Ni^2+-NTA column (Qiagen), followed by hydrophobic interaction chromatography (HIC) on a phenyl sepharose column (Amersham Pharmacia Biotech) and/or ion exchange chromatography (IEC) on a Q sepharose column (Amersham Pharmacia Biotech). The purified 38.3 kDa protein was buffer exchanged into 50 mM HEPES, pH 7.5 and stored at −80° C.
Phosphatase Buffer: 50 mm HEPES, pH 8; 1 mM DDT; 2 mM EDTA; 0.01% Brij solution; 10 mM MgCl2. […]
The plates are then placed in the plate reader, an Analyst HT. […] Fluorescence resonance energy transfer (FRET) from Eu-Ab to APC will only occur when they are in close proximity. […]
(Time-resolved FRET reads energy transfer from a long-lived donor to a nearby acceptor.)

Another test has as its target T2, T Cell (Homo sapiens, UniProt P17706).
T2 sequence (P17706 1-415): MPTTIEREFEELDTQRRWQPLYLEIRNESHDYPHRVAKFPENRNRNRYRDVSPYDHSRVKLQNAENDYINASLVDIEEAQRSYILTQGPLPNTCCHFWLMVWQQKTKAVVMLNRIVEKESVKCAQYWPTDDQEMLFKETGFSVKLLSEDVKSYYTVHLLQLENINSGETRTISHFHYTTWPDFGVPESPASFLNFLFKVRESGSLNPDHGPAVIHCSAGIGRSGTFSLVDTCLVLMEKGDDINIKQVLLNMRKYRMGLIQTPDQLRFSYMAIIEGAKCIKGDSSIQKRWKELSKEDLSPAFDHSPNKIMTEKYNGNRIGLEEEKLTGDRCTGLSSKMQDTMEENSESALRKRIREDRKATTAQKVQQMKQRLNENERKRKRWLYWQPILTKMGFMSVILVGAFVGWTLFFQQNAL
Nature of the test: FRET phosphatase assay, T Cell. In kind it is biochemical. The method, then: For the enzyme activity assay, 2.5 μl of compound, 12.5 μl of enzyme, and 10 μl of substrate (separated by air gaps) are added to columns 3 through 24 by the Biomek FX in a single dispense. After the dispense, the tips are washed with DMSO and water for re-use between each quadrant. Once the assay plates are set up, they are incubated at 27° C. for 45 minutes. Then 20 μl of detection buffer is added to stop the reaction and to allow the Europium antibody (Eu-Ab) and streptavidin-APC to bind to the substrate.
The plates are then placed in the plate reader, an Analyst HT. Excitation light at 360 nm is used to excite the Europium antibody with an emission at 620 nm. Fluorescence resonance energy transfer (FRET) from Eu-Ab to APC will only occur when they are in close proximity. Therefore, when an APC emission is observed at 665 nm the enzyme has been inhibited from removing the phosphate group from the substrate. The FRET assay is time-resolved (TR), where there is a delay between excitation light and collection of emission signals. This reduces the amount of stray light created by short-lived fluorescing molecules. The Analyst HT measures APC and Europium emission signals and calculates the ratio between the two intensities. Typical intensities for the Europium is ˜2000 and APC is ˜600.
The following compounds were tested by FRET against the listed phosphatases, and the IC50 were obtained. […]

As for `CCOC(=O)C(=CC1=C/C(=C/N(C)C)C(=O)O1)C(=O)OCC` [AGY- 0046293], the pIC50 is 6.49 against PTPMEG and 2.17 against T Cell.

What is called pIC50 is the negative decadic logarithm of the IC50, by convention in mol/L. High values mean a small IC50, low ones a large IC50.
